The assay deals with HIV. As to the kind of experiment: MT4 Assay (anti-HIV activity). In kind it is cell-based. Particulars: Human immunodeficiency virus 1, 96 h, read-out: HIV MT4 Assay IC50, HTLV-1 transformed cell line MT-4, cell titer glo, 10 point dose response curve. Summed up:
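IC50 values were fitted to 10-point dose-response series (3-4-fold dilutions, range >1000-fold), normalized to no-compound control. CellTiter-Glo read-out was taken after 96 hours in HTLV-1-transformed MT-4 cells. Cytotoxicity was measured in parallel under identical conditions.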
Regarding `Cc1c(-c2c([C@H](OC(C)(C)C)C(=O)O)n(C)c(=O)c3cc(OCCF)ccc23)ccc2c1CCCO2` [Example 141, (2S)-2-(tert-butoxy)-2-[7-(2-fluoroethoxy)-2-methyl-4-(5-methyl-3,4-dihydro-2H-1-benzopyran-6-yl)-1-oxo-1,2-dihydroisoquinolin-3-yl]acetic acid], the IC50 was found to be 30 nM. With `Cn1c(C(OC(C)(C)C)C(=O)O)c(-c2ccncc2)c2ccccc2c1=O` (stereo not shown) [Example 48, 2-(tert-butoxy)-2-[2-methyl-1-oxo-4-(pyridin-4-yl)-1,2-dihydroisoquinolin-3-yl]acetic acid] the figure was 50000 nM; with `Cc1c(-c2c([C@H](OC(C)(C)C)C(=O)O)n(C)c(=O)c3cc(-c4ccncc4)ccc23)cc(F)c2c1CCCO2` (atropisomer, axis not shown; (M)) [Example 205, (2S)(M)-[(1,1-dimethylethyl)oxy][4-(8-fluoro-5-methyl-3,4-dihydro-2H-chromen-6-yl)-2-methyl-1-oxo-7-(4-pyridinyl)-1,2-dihydro-3-isoquinolinyl]ethanoic acid], 160 nM.

`Cc1c(-c2c([C@H](OC(C)(C)C)C(=O)O)n(C)c(=O)c3cc(OCc4cccs4)ccc23)ccc2c1CCCO2` [Example 111, (2S)-2-(tert-butoxy)-2-[2-methyl-4-(5-methyl-3,4-dihydro-2H-1-benzopyran-6-yl)-1-oxo-7-(thiophen-2-ylmethoxy)-1,2-dihydroisoquinolin-3-yl]acetic acid]: the IC50 was found to be 30 nM. Regarding `Cc1c(-c2c(C(OC(C)(C)C)C(=O)O)n(C)c(=O)c3cc(OCc4ccc(S(C)(=O)=O)cc4)ccc23)ccc2c1CCCO2` (stereo not shown) [Example 128, 2-(tert-butoxy)-2-{7-[(4-methanesulfonylphenyl)-methoxy]-2-methyl-4-(5-methyl-3,4-dihydro-2H-1-benzopyran-6-yl)-1-oxo-1,2-dihydroisoquinolin-3-yl}acetic acid], the IC50 is 380 nM.

Turning to `CC(C)Oc1ccc(-c2c(C(OC(C)(C)C)C(=O)O)n(C)c(=O)c3ccccc23)cc1` (stereo not shown) [Example 45, 2-(tert-butoxy)-2-{2-methyl-1-oxo-4-[4-(propan-2-yloxy)phenyl]-1,2-dihydroisoquinolin-3-yl}acetic acid], the IC50 came to 50000 nM. Take `Cc1ccc(-c2c(C(OC(C)(C)C)C(=O)O)n(C)c(=O)c3cc(C(N)=O)ccc23)cc1C` (stereo not shown) [Example 178, [7-(aminocarbonyl)-4-(3,4-dimethylphenyl)-2-methyl-1-oxo-1,2-dihydro-3-isoquinolinyl][(1,1-dimethylethyl)oxy]acetic acid]: the IC50 amounted to 50000 nM. Take `CCOc1ccc(-c2c(C(OC(C)(C)C)C(=O)O)n(C)c(=O)c3ccccc23)cc1` (stereo not shown) [Example 42, 2-(tert-butoxy)-2-[4-(4-ethoxyphenyl)-2-methyl-1-oxo-1,2-dihydroisoquinolin-3-yl]acetic acid]: the IC50 is 33300 nM. For the molecule `Cc1c(-c2c(C(OC(C)(C)C)C(=O)O)n(C)c(=O)c3cc(OCc4ccc(F)cc4F)ccc23)ccc2c1CCCO2` (stereo not shown) [Example 134, 2-(tert-butoxy)-2-{7-[(2,4-difluorophenyl)methoxy]-2-methyl-4-(5-methyl-3,4-dihydro-2H-1-benzopyran-6-yl)-1-oxo-1,2-dihydroisoquinolin-3-yl}acetic acid], the IC50 stood at 70 nM. Consider `Cn1c(C(OC(C)(C)C)C(=O)O)c(-c2ccc3c(c2)CCCO3)c2ccc(F)cc2c1=O` (stereo not shown) [Example 57, 2-(tert-butoxy)-2-[4-(3,4-dihydro-2H-1-benzopyran-6-yl)-7-fluoro-2-methyl-1-oxo-1,2-dihydroisoquinolin-3-yl]acetic acid], for which the IC50 was 1650 nM. For `Cn1c(C(OC(C)(C)C)C(=O)O)c(-c2cccc(F)c2)c2ccccc2c1=O` (stereo not shown) [Example 40, 2-(tert-butoxy)-2-[4-(3-fluorophenyl)-2-methyl-1-oxo-1,2-dihydroisoquinolin-3-yl]acetic acid] the value was 2180 nM. Consider `Cc1ccc(N(C)c2c(C(OC(C)(C)C)C(=O)O)n(C)c(=O)c3ccccc23)cc1C` (stereo not shown) [Example 212, 2-(tert-Butoxy)-2-(4-((3,4-dimethylphenyl)(methyl)amino)-2-methyl-1-oxo-1,2-dihydroisoquinolin-3-yl)acetic acid], for which the IC50 worked out at 50000 nM. With `COc1ccc(-c2c(C(OC(C)(C)C)C(=O)O)n(C)c(=O)c3ccccc23)cc1` (stereo not shown) [Example 8, 2-(tert-butoxy)-2-[4-(4-methoxyphenyl)-2-methyl-1-oxo-1,2-dihydroisoquinolin-3-yl]acetic acid] the figure was 1300 nM; with `Cn1c(C(OC(C)(C)C)C(=O)O)c(-c2ccc(OC(F)(F)F)cc2)c2ccccc2c1=O` (stereo not shown) [Example 5, 2-(tert-butoxy)-2-{2-methyl-1-oxo-4-[4-(trifluoromethoxy)phenyl]-1,2-dihydroisoquinolin-3-yl}acetic acid], 41700 nM; with `Cc1ccc(-c2c(C(OC(C)(C)C)C(=O)O)n(C)c(=O)c3c(F)cccc23)cc1C` (stereo not shown) [Example 59, 2-(tert-butoxy)-2-[4-(3,4-dimethylphenyl)-8-fluoro-2-methyl-1-oxo-1,2-dihydroisoquinolin-3-yl]acetic acid], 2180 nM. With `COc1ccc(-c2c(C(OC(C)(C)C)C(=O)O)n(C)c(=O)c3ccccc23)cc1OC` (stereo not shown) [Example 50, 2-(tert-butoxy)-2-[4-(3,4-dimethoxyphenyl)-2-methyl-1-oxo-1,2-dihydroisoquinolin-3-yl]acetic acid], the IC50 was determined as 25600 nM.

Take `Cc1c(-c2c(C(OC(C)(C)C)C(=O)O)n(C)c(=O)c3cc(OCc4ccc(F)cc4)ccc23)cc(F)c2c1CCCO2` (stereo not shown) [Example 145, 2-(tert-butoxy)-2-[4-(8-fluoro-5-methyl-3,4-dihydro-2H-1-benzopyran-6-yl)-7-[(4-fluorophenyl)methoxy]-2-methyl-1-oxo-1,2-dihydroisoquinolin-3-yl]acetic acid]: the IC50 is 110 nM. As to `Cn1c(C(OC(C)(C)C)C(=O)O)c(-c2ccc3c(c2)CCC(C)(C)O3)c2ccccc2c1=O` (stereo not shown) [Example 78, 2-(tert-butoxy)-2-[4-(2,2-dimethyl-3,4-dihydro-2H-1-benzopyran-6-yl)-2-methyl-1-oxo-1,2-dihydroisoquinolin-3-yl]acetic acid], the IC50 stood at 41600 nM.

Regarding `Cc1c(-c2c([C@H](OC(C)(C)C)C(=O)NS(C)(=O)=O)n(C)c(=O)c3ccccc23)cc(F)c2c1CCCO2` (atropisomer, axis not shown; (M)) [Example 215, (2S)(M)-2-[(1,1-dimethylethyl)oxy]-2-[4-(8-fluoro-5-methyl-3,4-dihydro-2H-chromen-6-yl)-2-methyl-1-oxo-1,2-dihydro-3-isoquinolinyl]-N-(methylsulfonyl)ethanamide], the IC50 amounted to 11100 nM. With `Cc1ccc(-c2c(C(OC(C)(C)C)C(=O)O)n(C)c(=O)c3cc(F)ccc23)cc1C` (stereo not shown) [Example 87, 2-(tert-butoxy)-2-[4-(3,4-dimethylphenyl)-7-fluoro-2-methyl-1-oxo-1,2-dihydroisoquinolin-3-yl]acetic acid] the figure was 740 nM.

`Cc1cc(C)cc(-c2c(C(OC(C)(C)C)C(=O)O)n(C)c(=O)c3ccccc23)c1` (stereo not shown) [Example 10, 2-(tert-butoxy)-2-[4-(3,5-dimethylphenyl)-2-methyl-1-oxo-1,2-dihydroisoquinolin-3-yl]acetic acid]: the IC50 stood at 10500 nM. On to `Cc1c(-c2c([C@H](OC(C)(C)C)C(=O)O)n(C)c(=O)c3cc(-c4cccnc4)ccc23)cc(F)c2c1CCCO2` (atropisomer, axis not shown; (M)) [Example 206, (2S)(M)-[(1,1-dimethylethyl)oxy][4-(8-fluoro-5-methyl-3,4-dihydro-2H-chromen-6-yl)-2-methyl-1-oxo-7-(3-pyridinyl)-1,2-dihydro-3-isoquinolinyl]ethanoic acid], for which the IC50 stood at 160 nM. In the case of `Cc1ccc(COc2ccc3c(-c4cc(F)c5c(c4C)CCCO5)c([C@H](OC(C)(C)C)C(=O)O)n(C)c(=O)c3c2)s1` [Example 113, (2S)-2-(tert-butoxy)-2-[4-(8-fluoro-5-methyl-3,4-dihydro-2H-1-benzopyran-6-yl)-2-methyl-7-[(5-methylthiophen-2-yl)methoxy]-1-oxo-1,2-dihydroisoquinolin-3-yl]acetic acid], the IC50 is 30 nM. For `Cn1c(C(OC(C)(C)C)C(=O)O)c(-c2ccc3ccccc3c2)c2ccccc2c1=O` (stereo not shown) [Example 64, 2-(tert-butoxy)-2-[2-methyl-4-(naphthalen-2-yl)-1-oxo-1,2-dihydroisoquinolin-3-yl]acetic acid] the value was 8700 nM; for `COc1ccccc1-c1c(C(OC(C)(C)C)C(=O)O)n(C)c(=O)c2ccccc12` (stereo not shown) [Example 33, 2-(tert-butoxy)-2-[4-(2-methoxyphenyl)-2-methyl-1-oxo-1,2-dihydroisoquinolin-3-yl]acetic acid], 21700 nM; for `Cn1c(C(OC(C)(C)C)C(=O)O)c(-c2cc3c4c(c2)CCCN4CCC3)c2ccccc2c1=O` (stereo not shown) [Example 158, [(1,1-dimethylethyl)oxy][2-methyl-1-oxo-4-(2,3,6,7-tetrahydro-1H,5H-pyrido[3,2,1-ij]quinolin-9-yl)-1,2-dihydro-3-isoquinolinyl]acetic acid], 50000 nM. With `Cn1c(C(OC(C)(C)C)C(=O)O)c(-c2ccc3c(c2)CCO3)c2ccccc2c1=O` (stereo not shown) [Example 63, 2-(tert-butoxy)-2-[4-(2,3-dihydro-1-benzofuran-5-yl)-2-methyl-1-oxo-1,2-dihydroisoquinolin-3-yl]acetic acid], the IC50 is 1690 nM. `Cc1c(-c2c([C@H](OC(C)(C)C)C(=O)O)n(C)c(=O)c3cc(-c4cnn(C)c4)ccc23)cc(F)c2c1CCCO2` (atropisomer, axis not shown; (M)) [Example 200, (2S)(M)-[(1,1-dimethylethyl)oxy][4-(8-fluoro-5-methyl-3,4-dihydro-2H-chromen-6-yl)-2-methyl-7-(1-methyl-1H-pyrazol-4-yl)-1-oxo-1,2-dihydro-3-isoquinolinyl]ethanoic acid]: the IC50 stood at 110 nM.

For the origin of these results see patent US9029391B2 (priority 2011, dated 2015).
